The values that follow come from patent US11780845B2 (Relay Therapeutics, Inc., priority 2019, dated 2023).

One assay has as its target FGFR2 (Homo sapiens (Human), UniProt P21802). Kind of assay: Biochemical FGFR2 Caliper assay.
The subject of the next assay is SNU-16. Kind of assay: Cell SNU-16 assay. It counts as cell-based.
Setting [1] is: Homo sapiens, SNU-16, SNU-16 cells.

Bounds are passed on as bounds.

Chain of FGFR2 (P21802 22-821): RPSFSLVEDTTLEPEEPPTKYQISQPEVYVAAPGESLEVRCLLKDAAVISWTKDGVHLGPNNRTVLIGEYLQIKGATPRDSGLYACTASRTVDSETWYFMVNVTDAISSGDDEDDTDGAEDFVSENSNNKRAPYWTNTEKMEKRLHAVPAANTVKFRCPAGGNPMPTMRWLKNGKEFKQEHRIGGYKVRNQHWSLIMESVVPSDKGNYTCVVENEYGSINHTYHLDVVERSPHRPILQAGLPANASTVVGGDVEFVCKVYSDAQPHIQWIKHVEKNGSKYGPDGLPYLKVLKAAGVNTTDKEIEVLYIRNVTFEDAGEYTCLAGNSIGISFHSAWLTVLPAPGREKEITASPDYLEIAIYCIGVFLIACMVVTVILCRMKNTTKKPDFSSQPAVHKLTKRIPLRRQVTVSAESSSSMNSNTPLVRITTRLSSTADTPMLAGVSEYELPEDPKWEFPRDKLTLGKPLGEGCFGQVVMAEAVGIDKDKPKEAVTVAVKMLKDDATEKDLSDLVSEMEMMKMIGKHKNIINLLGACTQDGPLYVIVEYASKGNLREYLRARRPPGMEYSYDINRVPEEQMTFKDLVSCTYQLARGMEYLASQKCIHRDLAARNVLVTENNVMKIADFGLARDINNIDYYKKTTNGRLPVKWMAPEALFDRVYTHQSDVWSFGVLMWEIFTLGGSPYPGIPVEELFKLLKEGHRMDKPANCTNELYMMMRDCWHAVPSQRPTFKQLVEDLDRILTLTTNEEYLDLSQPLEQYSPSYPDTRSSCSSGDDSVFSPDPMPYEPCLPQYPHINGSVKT

Consider `C#Cc1ncc(-c2c(-c3ccc(Oc4nccc(C)n4)cn3)c3c(C)ncnc3n2C)c(C)c1F` [Example 1488], for which the IC50 against FGFR2 and in the assay on SNU-16 (setting [1]) was 250 to 1000 nM throughout.
For the compound `C=CC(=O)Nc1ccccc1-c1c(-c2ccc(Oc3cccc(C)n3)cc2)c2c(N)ncnc2n1C` [Example 1082], the results for the IC50 on FGFR2 and with SNU-16 (setting [1]) were under 100 nM and at most 100 nM, respectively.
Consider `C=C(C)C(=O)Nc1ccc(-c2c(C3=CC[C@@H](C(=O)N4CCC[C@]45CCOC5)CC3)c3c(N)ncnc3n2C)cc1` (single isomer, unassigned) [Example 961], for which the 50% inhibitory concentration (IC50) (commonly the concentration needed to halve the response being measured) against FGFR2 was in the range of 1000 to 100000 nM; in the assay on SNU-16 (SNU-16 cells), 250 to 1000 nM.
As for `C=C(C)C(=O)Nc1ccc(-c2c(-c3ccc4c(c3)COCC4)c3c(N)ncnc3n2C)cc1` [Example 1289], the IC50 on FGFR2 and in the assay on SNU-16 (setting [1]) was 1000 to 100000 nM each time.
Consider `C#Cc1nc(C)c(-c2c(-c3ccc(Oc4nccc(C)n4)c(F)c3)c3c(N)ncnc3n2C)c(C)n1` [Example 1438], for which the values for the IC50 against FGFR2 and with SNU-16 (setting [1]) were under 100 nM and at most 100 nM, respectively.
With `C=C(C)C(=O)Nc1ccc(-c2c(C3=CC[C@H](C(=O)N4CCC[C@@]45CCOC5)CC3)c3c(N)ncnc3n2C)cc1` (single isomer, unassigned) [Example 960], the IC50 at FGFR2 and with SNU-16 (SNU-16 cells) was 1000 to 100000 nM throughout.
For `C=C(C)C(=O)Nc1ccc(-c2sc3ncnc(N)c3c2-c2ccc(Oc3cccc(C)n3)cc2)cc1` [Example 801], the values for the IC50 against FGFR2 and with SNU-16 (setting [1]) were under 100 nM and at most 100 nM, respectively.
Consider `C#Cc1cc(C)c(-c2c(C3=CC[C@@H](C(=O)N4CCC[C@H]4COC)CC3)c3c(N)ncnc3n2C)cn1` (single isomer, unassigned) [Example 1212], for which the 50% inhibitory concentration (IC50) on FGFR2 is under 100 nM; in the assay with SNU-16 (setting [1]) it was 100 to 250 nM.
Take `C#Cc1cc(OC)c(-c2c(C3=CC[C@@H](C(=O)N4CCC[C@H]4C#N)CC3)c3c(C)ncnc3n2C)c(C)n1` [Example 1475]: the half-inhibitory concentration (IC50) on FGFR2 and in the assay on SNU-16 (SNU-16 cells) was 1000 to 100000 nM throughout.
With `Cc1ccnc(Oc2ccc(-c3c(-c4ccc(NC(=O)C5=COCC5)cc4)n(C)c4ncnc(N)c34)cc2)n1` [Example 952], the IC50 was under 100 nM against FGFR2 and at most 100 nM with SNU-16 (setting [1]).
Taken in the same sequence, the figures for `Cn1c(-c2ccc(NC(=O)[C@H]3CN3)cc2)c(-c2ccc(C(=O)N3CCCC3)cc2)c2c(N)ncnc21` (single isomer, unassigned) [Example 900] were 1000 to 100000 nM and 1000 to 100000 nM.
As to `C=CC(=O)Nc1cccc(-c2c(-c3ccc4c(c3)CCCN4C)c3c(N)ncnc3n2C)c1` [Example 1027], the IC50 at FGFR2 and in the assay with SNU-16 (setting [1]) was 1000 to 100000 nM each time.
As to `C=C(C)C(=O)Nc1ccc(-c2cn3ncnc(N)c3c2-c2ccc(C(=O)NCC(C)(C)O)cc2)cc1` [Example 842], the IC50 was in the range of 250 to 1000 nM against FGFR2 and 1000 to 100000 nM in the assay with SNU-16 (setting [1]).
For `C#Cc1cnc2ccc(-c3c(-c4ccc(Oc5nccc(C)n5)c(F)c4)c4c(N)ncnc4n3C)cc2n1` [Example 1384], the 50% inhibitory concentration (IC50) is under 100 nM against FGFR2 and 100 to 250 nM in the assay on SNU-16 (setting [1]).
Taken in the same sequence, the figures for `C=Cc1ccc(-c2c(-c3ccc4nn[nH]c4c3)c3c(N)ncnc3n2C)cn1` [Example 1352] were under 100 nM and at most 100 nM.
With `C=C(C)C(=O)Nc1cc(-c2c(-c3ccc(C(=O)N4CCCC4)cc3)c3c(N)ncnc3n2C)n(C)n1` [Example 866], the half-maximal inhibitory concentration (IC50) against FGFR2 is under 100 nM; with SNU-16 (SNU-16 cells), at most 100 nM.
For `C=C1C[C@H](C)N(c2ccc(-c3c(-c4ccc(Oc5nccc(C)n5)cc4)c4c(N)ncnc4n3C)cc2)C1=O` [Example 1131], the results for the IC50 at FGFR2 and with SNU-16 (setting [1]) were under 100 nM and at most 100 nM, respectively.
On to `C=C(C)C(=O)Nc1ccc(-c2c(-c3ccc(C(=O)N[C@H]4C[C@H](F)C4)c(COC)c3)c3c(N)ncnc3n2C)cc1` [Example 966], for which the IC50 is under 100 nM at FGFR2 and at most 100 nM in the assay on SNU-16 (setting [1]).
Take `C#Cc1cc(OC)c(-c2c(-c3ncc(Oc4nccc(C)n4)cc3F)c3c(N)ncnc3n2C)cn1` [Example 1452]: the values for the IC50 on FGFR2 and with SNU-16 (setting [1]) were under 100 nM and at most 100 nM, respectively.
For the compound `C=C(C)C(=O)Nc1ccc(-c2c(N3CC[C@@H](C(=O)N4CCCC4)CC3=O)c3c(N)ncnc3n2C)cc1` (single isomer, unassigned) [Example 925], the IC50 against FGFR2 is under 100 nM; with SNU-16 (setting [1]), at most 100 nM.
In the case of `C=CC(=O)N1C[C@@H](c2c(-c3ccc(C(=O)N4CCCCC4)cc3)c3c(N)ncnc3n2C)C[C@@H]1C` (single isomer, unassigned) [Example 884], the IC50 lay within 1000 to 100000 nM against FGFR2 and 100 to 250 nM in the assay on SNU-16 (setting [1]).
The matching figures for `C#Cc1ncc(-c2c(-c3ccc(C(=O)NCC(F)(F)F)c(OC)c3)c3c(N)ncnc3n2C)c(C)c1F` [Example 1260]: under 100 nM and at most 100 nM.
Consider `C#Cc1cc(C)c(-c2c(C3=CC[C@H](C(=O)N4CCC[C@H]4C#N)CC3)c3c(C)ncnc3n2C)c(C)n1` (atropisomer, axis not shown) [Example 1465], for which the IC50 against FGFR2 was under 100 nM; in the assay with SNU-16 (SNU-16 cells), at most 100 nM.
In the case of `C=C1C(=O)N(c2ccc(-c3c(-c4ccc(Oc5nccc(C)n5)cc4)c4c(N)ncnc4n3C)cc2)C[C@@H]1C` [Example 1133], the half-inhibitory concentration (IC50) on FGFR2 and with SNU-16 (setting [1]) was 100 to 250 nM in each case.
Consider `C#Cc1ccc(-c2c(C3=CC[C@@H](C(=O)N4CCC[C@H]4COC)CC3)c3c(N)ncnc3n2C)c(C)n1` (single isomer, unassigned) [Example 1211], for which the values for the 50% inhibitory concentration (IC50) at FGFR2 and in the assay with SNU-16 (setting [1]) were under 100 nM and 100 to 250 nM, respectively.
With `Cc1ccnc(Oc2ccc(-c3c(-c4ccc(OC[C@H]5CO5)cc4)n(C)c4ncnc(N)c34)cc2)n1` (single isomer, unassigned) [Example 917], the IC50 on FGFR2 and in the assay with SNU-16 (setting [1]) was 100 to 250 nM in each case.
Regarding `C=C(C)C(=O)Nc1ccc(-c2c(-c3ccc4ccncc4c3)c3c(N)ncnc3n2C)cc1` [Example 1272], the IC50 against FGFR2 and in the assay with SNU-16 (setting [1]) was 1000 to 100000 nM throughout.
Consider `C#Cc1cc(C)c(-c2c(C3=CC[C@@H](C(=O)N4CCC[C@H]4C)CC3)c3c(N)ncnc3n2C)cn1` (single isomer, unassigned) [Example 1219], for which the 50% inhibitory concentration (IC50) against FGFR2 is under 100 nM; with SNU-16 (setting [1]) it was at most 100 nM.
Regarding `C=C(C)C(=O)Nc1ccc(-c2c(C3=CC[C@@]4(CC3)Cc3ccc(OC)nc3C4=O)c3c(N)ncnc3n2C)cc1` [Example 1338], the IC50 on FGFR2 and in the assay on SNU-16 (setting [1]) was 1000 to 100000 nM in each case.
As for `C=C(C)C(=O)Nc1ccc(-c2c(-c3ccc4c(c3)CO[C@H]4c3cccc(C)n3)c3c(N)ncnc3n2C)cc1` (single isomer, unassigned) [Example 896], the values for the half-maximal inhibitory concentration (IC50) on FGFR2 and with SNU-16 (setting [1]) were 100 to 250 nM and 250 to 1000 nM, respectively.
`Cc1ccnc(Oc2ccc(-c3c(-c4ccc(NCC#N)cc4)n(C)c4ncnc(N)c34)cc2F)n1` [Example 1266]: the concentration for half-maximal inhibition (IC50) fell in the range of 1000 to 100000 nM on FGFR2 and 250 to 1000 nM in the assay with SNU-16 (setting [1]).
With `C#Cc1cc(C)c(-c2c(-c3ccc(Oc4nccc(C)n4)c(F)c3)c3c(N)ncnc3n2C)c(F)n1` [Example 1322], the figures for the half-maximal inhibitory concentration (IC50) on FGFR2 and in the assay on SNU-16 (setting [1]) were under 100 nM and at most 100 nM, respectively.
As to `CN(C)C/C=C/C(=O)Nc1ccc(-c2c(C3=CC[C@H](C(=O)N4CCCC4)CC3)c3c(N)ncnc3n2C)cc1` (single isomer, unassigned) [Example 1042], the IC50 is under 100 nM against FGFR2 and at most 100 nM in the assay with SNU-16 (setting [1]).
Taken in the same sequence, the figures for `C#Cc1cc(C)c(-c2c(C3=CC[C@H](C(=O)N4CCCC45CC5)CC3)c3c(N)ncnc3n2C)cn1` [Example 1325] were 250 to 1000 nM and 250 to 1000 nM.
On to `C=C1CCN(c2ccc(-c3c(-c4ccc(Oc5nccc(C)n5)c(F)c4)c4c(C)ncnc4n3C)c(C)c2)C1=O` [Example 1186], for which the figures for the concentration for half-maximal inhibition (IC50) at FGFR2 and with SNU-16 (setting [1]) were under 100 nM and at most 100 nM, respectively.
Taken in the same sequence, the figures for `C#C[C@@H]1CCCN1C(=O)[C@@H]1CC=C(c2c(-c3ccc(NC(=O)C(=C)C)cc3)n(C)c3ncnc(N)c23)CC1` (single isomer, unassigned) [Example 951] were 250 to 1000 nM and 100 to 250 nM.
As to `C=C(C)C(=O)Nc1ccc(-c2c(-c3ccc(Oc4nccc(C)n4)cc3)c3c(C)ncnc3n2C)c(C)c1` [Example 1125], the IC50 on FGFR2 and in the assay on SNU-16 (setting [1]) was 1000 to 100000 nM throughout.
On to `C#Cc1ncc2cc(-c3c(-c4ccc(Oc5nccc(C)n5)c(F)c4)c4c(N)ncnc4n3C)n(C)c2n1` [Example 1411], for which the 50% inhibitory concentration (IC50) on FGFR2 is under 100 nM; with SNU-16 (setting [1]) it was at most 100 nM.
For `C=C(C)C(=O)Nc1cc(-c2c(-c3ccc(C(=O)N4CCCC4)cc3)c3c(N)ncnc3n2C)n(C)n1` [Example 865], the IC50 against FGFR2 was 100 to 250 nM; in the assay on SNU-16 (SNU-16 cells), 250 to 1000 nM.
As to `C#Cc1cc(C)c(-c2c(C3=CC[C@@H](C(=O)N4CCC[C@H]4CO)CC3)c3c(N)ncnc3n2C)cn1` (single isomer, unassigned) [Example 1231], the half-maximal inhibitory concentration (IC50) on FGFR2 is under 100 nM; in the assay with SNU-16 (setting [1]), at most 100 nM.
Turning to `C=CC(=O)N1CCC(O)(c2c(-c3ccc(Oc4cccc(C)n4)cc3)c3c(N)ncnc3n2C)C1` (stereo not drawn) [Example 833], the IC50 against FGFR2 was 100 to 250 nM; with SNU-16 (setting [1]) it was 250 to 1000 nM.
Taken in the same sequence, the figures for `C#Cc1cc(-c2c(-c3ccc(Oc4nccc(C)n4)c(F)c3)c3c(N)ncnc3n2C)ccn1` [Example 1237] were 250 to 1000 nM and at most 100 nM.
For `C#Cc1cc(OC)c(-c2c(C3=CC[C@@H](C(=O)N4CCC[C@H]4C)CC3)c3c(N)ncnc3n2C)cn1` [Example 1354], the results for the IC50 at FGFR2 and with SNU-16 (setting [1]) were under 100 nM and at most 100 nM, respectively.
In the case of `C#Cc1ncc(-c2c(-c3ccc(Oc4nccc(C)n4)c(F)c3)c3c(C)ncnc3n2C)cc1OC` [Example 1381], the half-maximal inhibitory concentration (IC50) at FGFR2 was 100 to 250 nM; in the assay with SNU-16 (setting [1]), at most 100 nM.
Take `C#Cc1ccc(-c2c(-c3ccc(Oc4nccc(C)n4)cc3)c3c(N)ncnc3n2C)cc1F` [Example 1175]: the IC50 on FGFR2 is 100 to 250 nM; in the assay on SNU-16 (setting [1]) it was at most 100 nM.
Turning to `C#Cc1ccc(-c2c(-c3ccc(Oc4nccc(C)n4)c(F)c3)c3c(N)ncnc3n2C)c(C)n1` [Example 1168], the IC50 at FGFR2 was under 100 nM; with SNU-16 (setting [1]), 1000 to 100000 nM.
Taken in the same sequence, the figures for `C=C(C)C(=O)N[C@H]1C[C@H](c2c(-c3ccc(C(=O)N4CCCC4)cc3)c3c(N)ncnc3n2C)C1` [Example 880] were 1000 to 100000 nM and 1000 to 100000 nM.
The matching figures for `C=CC(=O)N[C@@H]1Cc2ccc(-c3c(-c4ccc(Oc5nccc(C)n5)cc4)c4c(N)ncnc4n3C)cc2C1` (single isomer, unassigned) [Example 927]: 1000 to 100000 nM and 1000 to 100000 nM.
